Laboratory results from the METLIN SMRT retention time set (Domingo-Almenara et al. 2019).

test: gradient 5% acetonitrile 3 min, to 50% in 2 min, to 85% in 15 min, held 3 min, 100 µL/min; settings: column: Zorbax Extend-C18 2.1 x 50 mm; eluents: water / acetonitrile, 0.1% formic acid
Summary of the method: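 Over 3 months, pure standards in mixtures of ~100 molecules were run by HPLC coupled to a quadrupole time-of-flight mass spectrometer in positive and negative ionization mode. The column was a Zorbax Extend-C18 (2.1 × 50 mm, 1.8 μm) at 100 μL/min, eluted with water and acetonitrile each holding 0.1% formic acid, with 40 μL dead and 900 μL dwell volumes. Retention time was determined from adduct peaks chosen by software and checked manually.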

| SMILES | RP-LC retention time |
| --- | --- |
| CN(C)c1ccc(-c2nc3ncccn3c2Nc2cccc(C(F)(F)F)c2)cc1 | 765 s |
| Cc1ccc(-c2nc3cnccn3c2Nc2ccc(C(=O)O)cc2)cc1 | 706 s |
| Nc1nc(Nc2ccccc2Cl)nc2ccccc12 | 615 s |
| CCN1CCN(c2nc(F)c3c(c2F)S(=O)(=O)CCN3Cc2ccccc2)CC1 | 682 s |
| COc1ccccc1-c1ccc(N2CCN(C(=O)c3ccccc3Cl)CC2)nn1 | 626 s |
| O=C(COc1ccccc1)N1CCC(OCc2nc(C3CC3)no2)CC1 | 817 s |
| CC(=O)N1c2ccc(S(=O)(=O)N3CCCC3)cc2CC1C(=O)N1CCN(c2ccccn2)CC1 (stereo not drawn) | 609 s |
| Cc1ccccc1NC(=O)Cn1ncc2c(c1=O)N(CC1CC1)C(=O)CS2 | 797 s |
| O=c1c2nc(-c3ccc(F)cc3)cn2ccn1-c1ccc(Cl)cc1 | 867 s |
| CC(C)(C)CCN1CCC(F)(c2nc(-c3ccccc3)no2)CC1 | 789 s |
| O=C(Nc1ccccc1C(F)(F)F)N(CCc1cccs1)C1CC1 | 1100 s |
| COC(=O)c1ccc2c(=O)n(-c3ccc(OC)cc3)c(N3CCN(c4ccccn4)CC3)nc2c1 | 1290 s |
| COc1cccc2cc(C(=O)NCCn3nc(-c4cccs4)ccc3=O)oc12 | 676 s |
| Cc1ccc(Cl)cc1NC(=O)Cn1nc2c3cc(Cl)ccc3ncn2c1=O | 770 s |
| CN(C(=O)Cn1cnc2c(-c3ccc(Cl)cc3)csc2c1=O)c1ccc(F)cc1 | 1180 s |
| Cc1ccc(-c2ccc(N3CCN(c4ccccn4)CC3)nn2)cc1S(=O)(=O)N1CCCCCC1 | 716 s |
| O=C(CCc1ccc2c(c1)CN(C(=O)C1COc3ccccc3O1)CCO2)N1CCOCC1 (stereo not drawn) | 779 s |
| CC1CN(CC(=O)N2CCN(Cc3ccc4c(c3)OCO4)CC2)c2ccccc2S1 (stereo not drawn) | 723 s |
| CCCN1CCn2cc(S(=O)(=O)Nc3cccc(C)c3)cc2C1=O | 777 s |

| SMILES | RP-LC retention time |
| --- | --- |
| O=C(Cc1ccsc1)N1CCC(n2c(-c3ccoc3)nc3cccnc32)C1 (stereo not drawn) | 811 s |
| Cc1nc(-c2csc(S(=O)(=O)N3CCCC(C(=O)Nc4cccc5c4CCCC5)C3)c2)no1 (stereo not drawn) | 1110 s |
| CCN1CCCC1CNC(=O)C1CCN(S(=O)(=O)c2ccc(-c3noc(C4CC4)n3)cc2)CC1 (stereo not drawn) | 679 s |
| Cc1cccc(NC(=O)Cn2cnc3c(c2=O)CCCC3)c1 | 706 s |
| COc1ccc(S(=O)(=O)N2CCN(c3cc(-n4ccnc4)nc(C)n3)CC2)cc1Cl | 664 s |
| COc1ccc(S(=O)(=O)N2CC[C@H](n3c(=O)n(C)c4cccnc43)C2)cc1 | 794 s |
| CN(CC1CCOCC1)S(=O)(=O)c1cccc(C(F)(F)F)c1 | 906 s |
| Cc1ccccc1N1CCN(Cc2nc(-c3ccc(N4CCCC(C)C4)nc3)no2)CC1 (stereo not drawn) | 1160 s |
| CCCCN(C(=O)c1ccc(S(=O)(=O)N2CCOCC2)cc1)C1CCS(=O)(=O)C1 (stereo not drawn) | 687 s |
| Cn1c(=O)oc2cc(-c3noc(-c4ccccc4)n3)ccc21 | 1010 s |
| CC1(C(=O)NCc2cccc(Br)c2)Oc2cccnc2NC1=O (stereo not drawn) | 730 s |
| COc1cc(CNS(=O)(=O)c2cn(C(C)C)c3ncccc23)cc(OC)c1 | 859 s |
| Cc1ccccc1NC(=O)C1CCCN(S(=O)(=O)c2cc(-c3noc(C4CCC4)n3)cs2)C1 (stereo not drawn) | 1130 s |
| O=C(Cc1ccc(F)cc1)N1CCN(Cc2nc(C3CC3)cs2)CC1 | 610 s |
| CCOc1ccccc1NC(=O)Cn1c(C)nc2c(sc3nc(-c4ccccc4)ccc32)c1=O | 1160 s |
| Cc1csc(C(=O)N2CC3CC2C(=O)O3)c1 (stereo not drawn) | 624 s |
| O=C(c1cc2cc(Cl)ccc2[nH]1)N1CCOCC1 | 860 s |
| O=C(Nc1ccccc1)C1CCCN(c2ncnc3c2nc2n3CCCCC2)C1 (stereo not drawn) | 774 s |
| CC(C)CNC(=O)Cc1nnc(-c2cccc(F)c2)o1 | 744 s |

| SMILES | RP-LC retention time |
| --- | --- |
| CCN(CC)CCCNC(=O)c1c(-c2ccc(Br)s2)noc1C | 652 s |
| CCCN(CC1CCOC1)C(=O)Nc1cc(Cl)ccc1C (stereo not drawn) | 901 s |
| CCCN1C(=O)COc2cc(-c3noc(C(=O)NCC(C)c4ccccc4)n3)ccc21 (stereo not drawn) | 793 s |
| COc1ccccc1NC(=O)Nc1nc(CC(=O)NCc2ccco2)cs1 | 712 s |
| Cc1ccc(-c2nnc(COc3cccc(NC(=O)c4n[nH]c5c4CCCC5)c3)o2)cc1 | 1010 s |
| Cc1c(C(=O)NC(C)C)cnn1-c1ccc(-c2nc(C(C)C)no2)cn1 | 931 s |
| Cc1ccc(NC(=O)Cn2c(C)cc(-c3nnc(C)o3)c2C)c(C)c1 | 802 s |
| COc1cc(NC(=O)c2cc(C(C)(C)C)n3nccc3n2)cc(OC)c1 | 721 s |
| Cc1cc(NC(=O)Cn2nc(N3CCOCC3)c3ccccc3c2=O)ccc1Br | 884 s |
| CCOc1ccc(-c2csc(Nc3cc(C)ccn3)n2)cc1 | 833 s |
| Cc1ccc(CNC(=O)c2nc(-c3ccnc(N4CCCC4)c3)no2)o1 | 663 s |
| Cc1cccc(NS(=O)(=O)c2ccc3nncn3c2)c1 | 673 s |
| CCn1cnc(S(=O)(=O)N2CCC(C(=O)N3CCN(c4cc(Cl)ccc4C)CC3)CC2)c1 | 916 s |
| Cn1cc(CCN2CCN(S(=O)(=O)c3ccc(C#N)cc3)CC2)c2cccnc21 | 616 s |
| COc1cc(C(=O)N2CCN(c3cc(-c4ccc(Cl)cc4)[nH]n3)CC2)cc(OC)c1OC | 827 s |
| COc1ccc(-c2nc3nc(C)cc(C)n3c2Nc2c(C)cccc2C)cc1 | 766 s |
| CSc1nc(NC(C)C)c(C#N)c(-c2ccccc2)n1 | 1190 s |
| CCOc1ccc(-c2noc(Cn3nc(-c4ccc(CC)cc4)ccc3=O)n2)cc1 | 597 s |
| COCc1nc(-c2ccc(OC3CNC3)cc2)no1 | 578 s |

The next lines start with the values.

| RP-LC retention time | SMILES |
| --- | --- |
| 744 s | CCN1CCN(Cc2ccc(C(=O)NCc3ccc(C(F)(F)F)cc3)cc2)C(=O)C1=O |
| 661 s | CCCNC(=O)C1CCCN(c2ccc(SCC(=O)NCc3ccccc3Cl)nn2)C1 (stereo not drawn) |
| 1060 s | CCc1ccc(NC(=O)C2CCN(S(=O)(=O)c3ccc4c(c3)sc(=O)n4C(C)C)CC2)cc1 |
| 571 s | Cc1nccn1CCNC(=O)C(=O)Nc1ccc2c(c1)N(C(=O)C(C)C)CCC2 |
| 567 s | COc1cn(CC(=O)Nc2cccc([N+](=O)[O-])c2)c(CN2CCC(C)CC2)cc1=O |
| 1190 s | CCOc1nc2ccccc2nc1N1CCCC(C(=O)N2CCN(c3ccc(OC)cc3)CC2)C1 (stereo not drawn) |
| 667 s | CCC(C)NC(=O)C1CCN(Cc2c(C)n(CC)c3ccccc23)CC1 (stereo not drawn) |
| 890 s | CCCCNC(=O)c1sc2ncn(CC(=O)N3CC(C)CC(C)C3)c(=O)c2c1C (stereo not drawn) |
| 1010 s | CCn1c(C(=O)NCc2ccc(F)cc2)cc2sccc21 |
| 1030 s | CSc1ccc(CNC(=O)C2CCCN(c3nccn4nc(-c5ccc(C)cc5C)cc34)C2)cc1 (stereo not drawn) |
| 683 s | CCCCNC(=O)C1CCN(c2nc(NC(C)=O)c(C(=O)N3CCCC3)s2)CC1 |
| 680 s | COc1cccc(N2CCN(C(=O)c3cn(-c4ccc(NC(C)=O)cn4)cn3)CC2)c1 |
| 774 s | COc1ccc(CCNC(=O)c2ccc3c(c2)N(C)C(=O)C2CCCCN32)cc1OC (stereo not drawn) |
| 575 s | Cc1oc(-c2[nH]ncc2C(=O)N2CCCCC2)cc1S(=O)(=O)NCc1ccncc1 |
| 557 s | CCOC(=O)c1ccc(CNC(=O)N2CCC(c3nc4ccncc4n3C)C2)cc1 (stereo not drawn) |
| 832 s | CCC(=O)N1CCc2cc(-c3ccc(C(=O)NC(C)C)cc3)ccc21 |

| RP-LC retention time | SMILES |
| --- | --- |
| 686 s | O=C(NCC(F)(F)F)C1CCN(C(=O)c2c(F)cccc2Cl)CC1 |
| 597 s | Cc1[nH]c(C(=O)N2CCC(CC(=O)NCc3cccnc3)CC2)c(C)c1C(=O)OC(C)C |
| 594 s | COc1ccc(Cl)cc1S(=O)(=O)N1CCC(C(=O)NCc2ccccn2)CC1 |
| 596 s | COC(=O)c1c(NCC(C)O)c2cc(F)ccc2[nH]c1=O (stereo not drawn) |
| 625 s | Cc1ccc2c(=O)c(C(=O)N3CCCC3)cn(CC(=O)NCc3ccc4c(c3)OCO4)c2n1 |
| 695 s | CC1(C)CC(=O)c2cn(-c3ccc(F)cc3)c(=O)c(C(=O)N3CCOCC3)c2C1 |
| 754 s | CN(C)c1ccc(CNC(=O)c2nnc(-c3ccc(S(=O)(=O)N4CCCCC4)cc3)o2)cc1 |
| 658 s | COc1ccc(C(=O)N2CCC(c3cc(N)on3)CC2)c(OC)c1 |
| 698 s | CCOc1ccc(CNC(=O)C2CCN(c3cnc4nccnc4c3)CC2)cc1 |
| 699 s | O=C(Nc1ccc(F)cc1)N1CCC(N2CC(F)(F)C[C@H]2COCC2CC2)CC1 |
| 572 s | CCC(=O)Nc1ccc(N(C)CCc2c(C)nn(C)c2C)c(C(=O)O)c1 |
| 892 s | CCOC(=O)c1c(C)[nH]c(C(=O)N2CCC(C(C)C(=O)NCc3ccc(OC(C)C)cc3)CC2)c1C (stereo not drawn) |
| 1000 s | CCC(C)NC(=O)c1c2c(cn(-c3ccc(C)cc3)c1=O)C(=O)CC(C)(C)C2 (stereo not drawn) |
| 794 s | CCC(=O)c1cn(CC(=O)NCc2ccc3c(c2)OCCCO3)c2ccccc12 |
| 793 s | CCc1ccc(CNC(=O)C2CCN(Cc3cn(C)c4ccc(Cl)cc34)CC2)cc1 |
